Test results taken from patent publication US12371428B2 (Exelixis, Inc., priority 2019, dated 2025).

Columns and labels:
[1] = biological target: Human MET (residues 956-1390) (Homo sapiens (Human), UniProt P08581); assay: Human Met kinase assay, HTRF KinEase (Example D-2); type: biochemical; conditions: protocol of Example D-2; read-out: c-Met IC50
Summary of the method: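 HTRF KinEase assay on MET residues 956-1390 (0.1 ng/well) in buffer with 5 mM MgCl2, 1 mM DTT and 1 mM MnCl2, with biotinylated peptide substrate, ATP at Km, 10 compound concentrations and 3% DMSO final, run 40 min at room temperature. The […] signal was normalized to DMSO and to 1 μM reference compound, and IC50 came from a 4-parameter logistic fit.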

[2] = biological target: Met (phospho-Met, HGF-stimulated PC-3 prostate cancer cells) (Homo sapiens (Human), UniProt P08581); assay: Met autophosphorylation ELISA in PC-3 cells (Example F); type: cell-based; conditions: cellular activity; Met autophosphorylation ELISA in PC-3 cells; read-out: c-Met IC50
Chain of Met (phospho-Met, HGF-stimulated PC-3 prostate cancer cells) (P08581 25-1390): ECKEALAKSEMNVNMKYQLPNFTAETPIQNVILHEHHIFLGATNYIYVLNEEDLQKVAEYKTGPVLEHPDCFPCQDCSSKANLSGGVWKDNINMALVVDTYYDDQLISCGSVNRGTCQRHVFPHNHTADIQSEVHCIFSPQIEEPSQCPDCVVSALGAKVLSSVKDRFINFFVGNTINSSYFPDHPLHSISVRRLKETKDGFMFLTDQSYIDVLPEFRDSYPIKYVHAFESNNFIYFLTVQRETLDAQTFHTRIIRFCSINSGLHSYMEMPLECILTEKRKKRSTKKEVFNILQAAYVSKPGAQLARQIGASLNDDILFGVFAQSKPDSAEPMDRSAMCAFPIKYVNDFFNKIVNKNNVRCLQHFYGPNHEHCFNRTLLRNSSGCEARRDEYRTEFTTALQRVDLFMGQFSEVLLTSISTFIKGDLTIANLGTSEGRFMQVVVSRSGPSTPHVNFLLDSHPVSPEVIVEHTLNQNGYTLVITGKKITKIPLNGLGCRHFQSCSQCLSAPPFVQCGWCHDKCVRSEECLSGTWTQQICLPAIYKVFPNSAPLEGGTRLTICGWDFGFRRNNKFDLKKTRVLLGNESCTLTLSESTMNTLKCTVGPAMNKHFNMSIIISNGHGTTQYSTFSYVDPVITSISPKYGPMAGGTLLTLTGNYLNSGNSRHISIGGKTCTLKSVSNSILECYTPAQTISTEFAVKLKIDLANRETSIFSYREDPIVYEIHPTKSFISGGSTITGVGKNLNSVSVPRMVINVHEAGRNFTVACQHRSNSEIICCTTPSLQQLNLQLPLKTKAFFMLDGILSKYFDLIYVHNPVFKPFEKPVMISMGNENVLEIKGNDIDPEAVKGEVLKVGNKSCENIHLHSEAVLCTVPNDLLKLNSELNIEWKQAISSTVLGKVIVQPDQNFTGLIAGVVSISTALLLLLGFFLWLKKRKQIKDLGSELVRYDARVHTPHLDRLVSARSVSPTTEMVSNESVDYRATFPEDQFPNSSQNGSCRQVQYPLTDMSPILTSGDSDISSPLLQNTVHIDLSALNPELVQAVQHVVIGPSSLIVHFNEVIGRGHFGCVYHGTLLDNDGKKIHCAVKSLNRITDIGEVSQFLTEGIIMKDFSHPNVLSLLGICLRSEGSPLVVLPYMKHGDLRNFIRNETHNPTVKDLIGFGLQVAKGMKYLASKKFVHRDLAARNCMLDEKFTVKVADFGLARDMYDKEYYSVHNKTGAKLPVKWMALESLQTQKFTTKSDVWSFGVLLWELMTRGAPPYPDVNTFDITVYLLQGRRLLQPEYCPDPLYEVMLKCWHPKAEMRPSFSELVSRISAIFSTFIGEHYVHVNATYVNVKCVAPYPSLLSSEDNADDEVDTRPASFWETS
Summary of the method: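 PC-3 cells, serum-starved 3 h, were treated with compounds (8-point dose curve, 0.3% DMSO final) for 1 h, then stimulated with 100 ng/mL recombinant human HGF for 10 min. Lysate phospho-Met (panTyr) was quantified by sandwich ELISA; IC50 from 4-parameter logistic fit.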

[3] = biological target: Human MER (residues 528-999) (Homo sapiens (Human), UniProt Q12866); assay: Human Mer kinase assay, HTRF KinEase (Example C-2); type: biochemical; conditions: protocol of Example C-2
Chain of Human MER (residues 528-999) (Q12866 528-999): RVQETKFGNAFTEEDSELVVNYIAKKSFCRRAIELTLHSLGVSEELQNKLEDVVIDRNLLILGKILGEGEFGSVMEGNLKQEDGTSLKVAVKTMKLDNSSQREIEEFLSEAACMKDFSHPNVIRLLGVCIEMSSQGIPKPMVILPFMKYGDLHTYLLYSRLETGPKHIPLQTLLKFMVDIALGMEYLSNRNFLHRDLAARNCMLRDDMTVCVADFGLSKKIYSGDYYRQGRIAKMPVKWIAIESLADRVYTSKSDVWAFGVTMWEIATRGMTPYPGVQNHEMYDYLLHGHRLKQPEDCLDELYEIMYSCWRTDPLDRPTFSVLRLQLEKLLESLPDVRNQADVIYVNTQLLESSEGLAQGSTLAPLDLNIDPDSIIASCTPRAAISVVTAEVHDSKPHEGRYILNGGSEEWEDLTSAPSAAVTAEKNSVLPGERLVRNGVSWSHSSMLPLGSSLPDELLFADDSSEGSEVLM
Summary of the method: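 HTRF KinEase TK assay with MER 528-999 (1 ng/well) in enzymatic buffer plus 5 mM MgCl2 and 1 mM DTT, biotinylated peptide substrate and ATP at Km (40 μM), 3% DMSO final, 60 min at room temperature. Stopped with EDTA detection mix (SA-XL665, TK antibody-Eu3+), read at 665/620 nm after 60 min; IC50 from 10-point 4-parameter fit, normalized to DMSO and 1 μM reference.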

[4] = biological target: KDR (phospho-KDR, VEGF165-stimulated HUVEC cells) (Homo sapiens (Human), UniProt P35968); assay: KDR autophosphorylation ELISA in HUVEC cells (Example G); type: cell-based; conditions: cellular activity; KDR autophosphorylation ELISA in HUVEC cells
Chain of KDR (phospho-KDR, VEGF165-stimulated HUVEC cells) (P35968 20-1356): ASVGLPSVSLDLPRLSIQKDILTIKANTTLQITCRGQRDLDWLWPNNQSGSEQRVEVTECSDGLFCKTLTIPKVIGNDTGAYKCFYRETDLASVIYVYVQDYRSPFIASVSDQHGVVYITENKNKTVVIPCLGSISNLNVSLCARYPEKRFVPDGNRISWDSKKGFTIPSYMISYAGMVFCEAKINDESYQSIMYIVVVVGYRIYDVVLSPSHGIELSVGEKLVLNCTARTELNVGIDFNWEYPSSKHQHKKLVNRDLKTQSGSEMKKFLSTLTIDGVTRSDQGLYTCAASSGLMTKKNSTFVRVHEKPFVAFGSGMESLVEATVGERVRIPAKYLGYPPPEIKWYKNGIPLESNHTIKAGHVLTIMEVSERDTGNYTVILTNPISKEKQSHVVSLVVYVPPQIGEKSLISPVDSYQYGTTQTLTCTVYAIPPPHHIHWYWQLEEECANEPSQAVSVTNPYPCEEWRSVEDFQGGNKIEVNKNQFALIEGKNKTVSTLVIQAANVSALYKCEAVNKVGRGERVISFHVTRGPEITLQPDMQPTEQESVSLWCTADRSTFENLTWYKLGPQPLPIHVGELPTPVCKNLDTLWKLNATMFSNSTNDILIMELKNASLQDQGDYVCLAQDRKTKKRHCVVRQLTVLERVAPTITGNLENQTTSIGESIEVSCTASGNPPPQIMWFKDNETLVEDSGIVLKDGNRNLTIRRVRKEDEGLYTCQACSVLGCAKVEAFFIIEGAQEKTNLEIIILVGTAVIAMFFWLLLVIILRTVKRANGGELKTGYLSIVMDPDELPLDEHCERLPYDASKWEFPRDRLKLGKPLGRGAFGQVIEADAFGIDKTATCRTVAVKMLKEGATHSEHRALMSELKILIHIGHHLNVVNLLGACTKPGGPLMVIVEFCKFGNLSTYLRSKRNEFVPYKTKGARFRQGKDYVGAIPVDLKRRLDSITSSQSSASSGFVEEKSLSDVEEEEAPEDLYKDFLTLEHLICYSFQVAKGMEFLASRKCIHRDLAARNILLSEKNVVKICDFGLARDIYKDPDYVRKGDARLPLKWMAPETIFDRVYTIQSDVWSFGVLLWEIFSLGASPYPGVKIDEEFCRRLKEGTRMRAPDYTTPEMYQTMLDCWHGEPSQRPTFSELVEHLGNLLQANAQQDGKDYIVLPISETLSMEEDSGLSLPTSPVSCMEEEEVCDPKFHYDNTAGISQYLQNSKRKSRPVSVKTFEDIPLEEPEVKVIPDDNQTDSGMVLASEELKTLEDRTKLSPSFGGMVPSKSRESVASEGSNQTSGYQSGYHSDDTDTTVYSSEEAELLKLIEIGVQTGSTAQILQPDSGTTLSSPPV
Summary of the method: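 HUVECs were serum-starved 24 h, given compound as an 8-point dilution series (0.3% DMSO final) for 1 h, then stimulated with 100 ng/mL VEGF165 for 5 min. Lysate phospho-KDR was quantified by sandwich ELISA against a phospho-KDR standard, and IC50s came from a 4-parameter logistic fit.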

Chain of Human MET (residues 956-1390) (P08581 956-1390): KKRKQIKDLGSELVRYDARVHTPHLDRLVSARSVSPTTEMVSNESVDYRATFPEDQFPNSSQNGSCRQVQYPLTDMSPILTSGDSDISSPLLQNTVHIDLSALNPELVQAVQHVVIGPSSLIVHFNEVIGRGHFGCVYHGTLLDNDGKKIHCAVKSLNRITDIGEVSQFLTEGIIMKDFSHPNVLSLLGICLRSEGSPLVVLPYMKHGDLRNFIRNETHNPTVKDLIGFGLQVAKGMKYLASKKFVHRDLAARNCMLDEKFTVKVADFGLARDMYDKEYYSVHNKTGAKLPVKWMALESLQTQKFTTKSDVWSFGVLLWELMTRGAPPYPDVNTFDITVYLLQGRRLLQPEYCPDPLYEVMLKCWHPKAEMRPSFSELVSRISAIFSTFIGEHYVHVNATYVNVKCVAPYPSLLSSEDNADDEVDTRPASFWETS

Structure (SMILES) | IC50 [1] | IC50 [2] | IC50 [3] | IC50 [4]
COc1nc2c(Oc3ccc(NC(=O)c4cnc(C)c(-c5ccc(F)cc5C)c4O)cc3F)ccnc2cc1C [Compound 460, N-[3-fluoro-4-[(6-methoxy-7-methyl-1,5-naphthyridin-4-yl)oxy]phenyl]-5-(4-fluoro-2-methylphenyl)-4-hydroxy-6-methylpyridine-3-carboxamide] | 100 to 300 nM | < 100 nM | < 100 nM | < 100 nM
COc1cc2nccc(Oc3ccc(NC(=O)c4c(C)ncc(-c5ccc(F)cc5C)c4O)cc3F)c2nc1OC [Compound 479, N-[4-[(6,7-dimethoxy-1,5-naphthyridin-4-yl)oxy]-3-fluorophenyl]-5-(4-fluoro-2-methylphenyl)-4-hydroxy-2-methylpyridine-3-carboxamide] | < 100 nM | < 100 nM | < 100 nM | < 100 nM
COc1ccc2nccc(Oc3ccc(NC(=O)c4c(C)ncc(-c5ccc(F)cc5C)c4O)cc3F)c2n1 [Compound 480, N-[3-fluoro-4-[(6-methoxy-1,5-naphthyridin-4-yl)oxy]phenyl]-5-(4-fluoro-2-methylphenyl)-4-hydroxy-2-methylpyridine-3-carboxamide] | 100 to 300 nM | < 100 nM | 100 to 300 nM | < 100 nM
COc1cc2nccc(Oc3ccc(NC(=O)c4c(C)n(C)cc(-c5ccc(F)cc5C)c4=O)cc3F)c2nc1OC [Compound 481, N-[4-[(6,7-dimethoxy-1,5-naphthyridin-4-yl)oxy]-3-fluorophenyl]-5-(4-fluoro-2-methylphenyl)-1,2-dimethyl-4-oxopyridine-3-carboxamide] | < 100 nM | < 100 nM | < 100 nM | < 100 nM
COCCOc1cc2nccc(Oc3ccc(NC(=O)c4c(COC)nc(C)c(-c5ccc(F)cc5)c4O)cc3F)c2nc1OC [Compound 482, N-[3-fluoro-4-[[6-methoxy-7-(2-methoxyethoxy)-1,5-naphthyridin-4-yl]oxy]phenyl]-5-(4-fluorophenyl)-4-hydroxy-2-(methoxymethyl)-6-methylpyridine-3-carboxamide] | < 100 nM | < 100 nM | < 100 nM | < 100 nM
COc1ccc2nccc(Oc3ccc(NC(=O)c4c(C)n(C)cc(-c5ccc(F)cc5C)c4=O)cc3F)c2n1 [Compound 483, N-[3-fluoro-4-[(6-methoxy-1,5-naphthyridin-4-yl)oxy]phenyl]-5-(4-fluoro-2-methylphenyl)-1,2-dimethyl-4-oxopyridine-3-carboxamide] | > 300 nM | < 100 nM | 100 to 300 nM | > 300 nM
COc1cc2c(Oc3ccc(NC(=O)c4ccc(C)n(-c5ccc(F)cc5)c4=O)cc3F)ccnc2cn1 [Compound 494, N-[3-fluoro-4-[(6-methoxy-1,7-naphthyridin-4-yl)oxy]phenyl]-1-(4-fluorophenyl)-6-methyl-2-oxopyridine-3-carboxamide] | < 100 nM | < 100 nM | < 100 nM | < 100 nM
COc1cc2nccc(Oc3ccc(NC(=O)c4cn(C)cc(-c5ccc(F)cc5C)c4=O)cc3F)c2nc1OC [Compound 503, N-[4-[(6,7-dimethoxy-1,5-naphthyridin-4-yl)oxy]-3-fluorophenyl]-5-(4-fluoro-2-methylphenyl)-1-methyl-4-oxopyridine-3-carboxamide] | < 100 nM | < 100 nM | < 100 nM | < 100 nM
CCc1ncc(C(=O)Nc2ccc(Oc3ccnc4cc(OC)c(OC)nc34)c(F)c2)c(O)c1-c1ccc(F)cc1 [Compound 504, N-[4-[(6,7-dimethoxy-1,5-naphthyridin-4-yl)oxy]-3-fluorophenyl]-6-ethyl-5-(4-fluorophenyl)-4-hydroxypyridine-3-carboxamide] | < 100 nM | < 100 nM | < 100 nM | < 100 nM
Cc1cc(F)ccc1-c1c(C)nc(C)c(C(=O)Nc2ccc(Oc3ccnc4cccnc34)c(F)c2)c1O [Compound 505, 5-(4-fluoro-2-methylphenyl)-N-[3-fluoro-4-(1,5-naphthyridin-4-yloxy)phenyl]-4-hydroxy-2,6-dimethylpyridine-3-carboxamide] | < 100 nM | < 100 nM | 100 to 300 nM | < 100 nM
Cc1ccc2nccc(Oc3ccc(NC(=O)c4c(C)nc(C)c(-c5ccc(F)cc5C)c4O)cc3F)c2n1 [Compound 506, N-[3-fluoro-4-[(6-methyl-1,5-naphthyridin-4-yl)oxy]phenyl]-5-(4-fluoro-2-methylphenyl)-4-hydroxy-2,6-dimethylpyridine-3-carboxamide] | < 100 nM | < 100 nM | < 100 nM | < 100 nM
COc1cnc2c(Oc3ccc(NC(=O)c4c(C)n(C)c(C)c(-c5ccc(F)cc5)c4=O)cc3F)ccnc2c1 [Compound 508, N-[3-fluoro-4-[(7-methoxy-1,5-naphthyridin-4-yl)oxy]phenyl]-5-(4-fluorophenyl)-1,2,6-trimethyl-4-oxopyridine-3-carboxamide] | < 100 nM | < 100 nM | < 100 nM | > 300 nM
CCc1nc(C)c(-c2ccc(F)cc2)c(O)c1C(=O)Nc1ccc(Oc2ccnc3ccc(OC)nc23)cc1 [Compound 509, 2-ethyl-5-(4-fluorophenyl)-4-hydroxy-N-[4-[(6-methoxy-1,5-naphthyridin-4-yl)oxy]phenyl]-6-methylpyridine-3-carboxamide] | < 100 nM | < 100 nM | < 100 nM | < 100 nM
COCc1nc(C)c(-c2ccc(F)cc2)c(O)c1C(=O)Nc1ccc(Oc2ccnc3ccc(OC)nc23)cc1 [Compound 510, 5-(4-fluorophenyl)-4-hydroxy-2-(methoxymethyl)-N-[4-[(6-methoxy-1,5-naphthyridin-4-yl)oxy]phenyl]-6-methylpyridine-3-carboxamide] | < 100 nM | < 100 nM | < 100 nM | < 100 nM
COc1cc2nccc(Oc3ccc(NC(=O)c4c(C)n(C)c(C)c(-c5ccc(F)cc5)c4=O)cc3F)c2nc1OC [Compound 511, N-[4-[(6,7-dimethoxy-1,5-naphthyridin-4-yl)oxy]-3-fluorophenyl]-5-(4-fluorophenyl)-1,2,6-trimethyl-4-oxopyridine-3-carboxamide] | < 100 nM | < 100 nM | < 100 nM | 100 to 300 nM
COc1cc2nccc(Oc3ccc(NC(=O)c4nn(C)c(C)c(-c5ccc(F)cc5C)c4=O)cc3F)c2nc1OC [Compound 512, N-[4-[(6,7-dimethoxy-1,5-naphthyridin-4-yl)oxy]-3-fluorophenyl]-5-(4-fluoro-2-methylphenyl)-1,6-dimethyl-4-oxopyridazine-3-carboxamide] | < 100 nM | < 100 nM | < 100 nM | < 100 nM
COc1cnc2c(Oc3ccc(NC(=O)c4nn(C)c(C)c(-c5ccc(F)cc5C)c4=O)cc3F)ccnc2c1 [Compound 513, N-[3-fluoro-4-[(7-methoxy-1,5-naphthyridin-4-yl)oxy]phenyl]-5-(4-fluoro-2-methylphenyl)-1,6-dimethyl-4-oxopyridazine-3-carboxamide] | < 100 nM | < 100 nM | < 100 nM | < 100 nM
COc1cnc2c(Oc3ccc(NC(=O)c4nn(C)c(C)c(-c5ccc(F)cc5C)c4=O)cc3)ccnc2c1 [Compound 514, 5-(4-fluoro-2-methylphenyl)-N-[4-[(7-methoxy-1,5-naphthyridin-4-yl)oxy]phenyl]-1,6-dimethyl-4-oxopyridazine-3-carboxamide] | < 100 nM | < 100 nM | < 100 nM | < 100 nM
COc1cnc2c(Oc3ccc(NC(=O)c4nnc(C)c(-c5ccc(F)cc5)c4OC)cc3)ccnc2c1 [Compound 515, 5-(4-fluorophenyl)-4-methoxy-N-[4-[(7-methoxy-1,5-naphthyridin-4-yl)oxy]phenyl]-6-methylpyridazine-3-carboxamide] | < 100 nM | < 100 nM | < 100 nM | < 100 nM
COCc1nc(C)c(-c2ccc(F)cc2C)c(O)c1C(=O)Nc1ccc(Oc2ccnc3ccc(OC)nc23)cc1 [Compound 516, 5-(4-fluoro-2-methylphenyl)-4-hydroxy-2-(methoxymethyl)-N-[4-[(6-methoxy-1,5-naphthyridin-4-yl)oxy]phenyl]-6-methylpyridine-3-carboxamide] | < 100 nM | < 100 nM | < 100 nM | 100 to 300 nM
